Results as given in ChEMBL document CHEMBL1909046, “DrugMatrix in vitro pharmacology data”.

What was measured:
[1] = target: T1, Muscarinic acetylcholine receptor M5 (Homo sapiens, UniProt P08912); assay type: cell membranes, Membrane; settings: cho-k1; further: in other assays of this panel Not Active means under 50% inhibition at 10 µM
T1 sequence (P08912 whole entry): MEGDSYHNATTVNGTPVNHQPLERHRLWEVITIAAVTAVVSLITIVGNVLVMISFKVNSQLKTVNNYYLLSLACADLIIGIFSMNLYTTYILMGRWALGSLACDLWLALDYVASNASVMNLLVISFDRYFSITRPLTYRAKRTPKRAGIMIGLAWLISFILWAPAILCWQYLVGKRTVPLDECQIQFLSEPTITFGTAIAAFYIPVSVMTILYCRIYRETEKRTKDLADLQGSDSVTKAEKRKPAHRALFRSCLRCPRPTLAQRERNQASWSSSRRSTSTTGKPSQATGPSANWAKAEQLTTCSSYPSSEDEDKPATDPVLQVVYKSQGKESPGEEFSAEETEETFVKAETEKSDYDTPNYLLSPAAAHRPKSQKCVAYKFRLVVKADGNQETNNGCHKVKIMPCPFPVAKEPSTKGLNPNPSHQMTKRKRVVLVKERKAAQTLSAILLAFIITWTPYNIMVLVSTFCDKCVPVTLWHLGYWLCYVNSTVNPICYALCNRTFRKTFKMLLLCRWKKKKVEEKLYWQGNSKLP

[2] = target: Tyrosine-protein kinase Fyn (Homo sapiens, UniProt P06241); assay: biochemical; assay type: cell-based, Insect cells; settings: insect cells;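 further: enzymatic inhibition of Fyn kinase activity measured with Poly(Glu:Tyr) as the phosphorylation substrate; in other assays of this panel Not Active means under 50% inhibition at 10 µM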
Cytochrome P450 2D6 = Cytochrome P450 2D6 (Homo sapiens, UniProt P10635); settings: bti-tn-5b1-4; further: in other assays of this panel Not Active means under 50% inhibition at 10 µM
[3] = target: 5-hydroxytryptamine receptor 6 (Homo sapiens, UniProt P50406); assay type: cell membranes, HeLa, Membrane; further: in other assays of this panel Not Active means under 50% inhibition at 10 µM
[4] = target: Delta-type opioid receptor (Homo sapiens, UniProt P41143); assay type: cell membranes, HEK293, Membrane; settings: hek293; further: in other assays of this panel Not Active means under 50% inhibition at 10 µM
Melanocortin receptor 5 = Melanocortin receptor 5 (Homo sapiens, UniProt P33032); assay type: cell membranes, HEK293, Membrane; settings: hek293; further: in other assays of this panel Not Active means under 50% inhibition at 10 µM
[5] = DRUGMATRIX: Glutamate, NMDA, Agonism radioligand binding (ligand: [3H] CGP-39653); assay type: cell membranes, Rattus norvegicus, Wistar, Cerebral cortex, Membrane; settings: Not Active = under 50% inhibition at 10 µM
[6] = DRUGMATRIX: Platelet-Derived Growth Factor (PDGF) radioligand binding (ligand: [125I] PDGF); assay type: cell-based; settings: nih3t3; Not Active = under 50% inhibition at 10 µM

Delta-type opioid receptor, sequence (P41143 whole entry): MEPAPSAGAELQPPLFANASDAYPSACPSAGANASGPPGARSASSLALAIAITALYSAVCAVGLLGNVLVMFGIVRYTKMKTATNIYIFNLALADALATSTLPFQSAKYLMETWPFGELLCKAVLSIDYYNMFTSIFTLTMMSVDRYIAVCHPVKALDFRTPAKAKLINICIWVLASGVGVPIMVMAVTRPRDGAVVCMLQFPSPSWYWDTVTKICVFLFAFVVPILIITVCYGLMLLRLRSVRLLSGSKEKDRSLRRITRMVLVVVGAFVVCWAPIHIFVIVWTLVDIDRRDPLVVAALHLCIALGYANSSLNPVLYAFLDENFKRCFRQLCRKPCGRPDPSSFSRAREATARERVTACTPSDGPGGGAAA
5-hydroxytryptamine receptor 6, sequence (P50406 whole entry): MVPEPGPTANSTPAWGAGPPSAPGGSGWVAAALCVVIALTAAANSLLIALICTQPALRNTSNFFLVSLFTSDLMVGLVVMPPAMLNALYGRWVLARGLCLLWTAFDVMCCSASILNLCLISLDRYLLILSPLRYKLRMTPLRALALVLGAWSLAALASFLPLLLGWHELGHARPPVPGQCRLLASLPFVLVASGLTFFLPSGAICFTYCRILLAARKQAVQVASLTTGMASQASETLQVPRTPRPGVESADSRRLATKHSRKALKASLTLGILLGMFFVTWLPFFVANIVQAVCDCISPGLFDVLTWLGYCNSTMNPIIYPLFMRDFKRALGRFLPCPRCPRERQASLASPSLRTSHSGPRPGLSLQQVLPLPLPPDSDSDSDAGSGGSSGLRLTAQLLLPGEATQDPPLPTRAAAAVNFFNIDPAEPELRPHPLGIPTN
Tyrosine-protein kinase Fyn, sequence (P06241 whole entry): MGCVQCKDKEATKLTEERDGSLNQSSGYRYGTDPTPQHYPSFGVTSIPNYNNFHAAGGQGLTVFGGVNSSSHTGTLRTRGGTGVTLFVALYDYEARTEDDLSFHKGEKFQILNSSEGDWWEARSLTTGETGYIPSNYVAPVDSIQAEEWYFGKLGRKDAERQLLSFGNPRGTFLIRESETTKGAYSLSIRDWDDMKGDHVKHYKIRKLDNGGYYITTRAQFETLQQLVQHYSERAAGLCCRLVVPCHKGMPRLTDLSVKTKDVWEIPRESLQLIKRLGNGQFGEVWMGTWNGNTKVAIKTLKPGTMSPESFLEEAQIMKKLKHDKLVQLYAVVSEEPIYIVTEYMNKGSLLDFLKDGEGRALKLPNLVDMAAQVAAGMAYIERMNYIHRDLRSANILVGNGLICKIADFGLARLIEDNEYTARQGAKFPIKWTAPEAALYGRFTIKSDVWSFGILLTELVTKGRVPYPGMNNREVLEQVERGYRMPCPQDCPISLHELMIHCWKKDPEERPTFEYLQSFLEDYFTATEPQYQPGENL
Melanocortin receptor 5, sequence (P33032 whole entry): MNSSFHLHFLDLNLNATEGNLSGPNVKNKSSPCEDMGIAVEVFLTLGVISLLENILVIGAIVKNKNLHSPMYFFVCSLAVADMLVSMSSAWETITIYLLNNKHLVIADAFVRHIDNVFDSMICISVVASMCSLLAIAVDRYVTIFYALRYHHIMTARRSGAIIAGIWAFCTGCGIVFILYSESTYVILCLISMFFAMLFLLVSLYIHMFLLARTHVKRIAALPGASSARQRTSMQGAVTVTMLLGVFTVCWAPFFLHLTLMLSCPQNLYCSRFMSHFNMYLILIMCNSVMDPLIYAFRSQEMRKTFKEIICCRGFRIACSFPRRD
Cytochrome P450 2D6, sequence (P10635 whole entry): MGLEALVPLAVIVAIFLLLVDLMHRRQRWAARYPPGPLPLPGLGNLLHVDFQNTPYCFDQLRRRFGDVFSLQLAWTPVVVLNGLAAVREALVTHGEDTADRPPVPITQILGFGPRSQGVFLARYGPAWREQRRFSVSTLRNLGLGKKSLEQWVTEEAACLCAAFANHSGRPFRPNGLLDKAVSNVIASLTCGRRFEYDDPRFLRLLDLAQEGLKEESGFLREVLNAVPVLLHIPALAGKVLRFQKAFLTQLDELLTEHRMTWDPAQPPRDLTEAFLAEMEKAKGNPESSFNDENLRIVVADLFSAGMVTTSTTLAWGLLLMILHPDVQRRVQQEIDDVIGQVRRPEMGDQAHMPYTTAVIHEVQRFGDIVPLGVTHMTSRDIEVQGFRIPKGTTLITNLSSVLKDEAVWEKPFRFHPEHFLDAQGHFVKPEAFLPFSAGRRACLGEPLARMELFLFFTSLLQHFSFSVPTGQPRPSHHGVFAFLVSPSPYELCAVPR

SMILES | IC50 [1] | IC50 [2] | IC50 (Cytochrome P450 2D6) | Ki (Cytochrome P450 2D6) | IC50 ([3]; hela) | IC50 [4] | IC50 (Melanocortin receptor 5) | IC50 [5] | Ki [5] | IC50 [6] | Ki [6] | IC50 ([3]; read-out: IC50) | Ki ([3]; read-out: Ki)
CCOC(=O)n1ccn(C)c1=S [CARBIMAZOLE] | Not Active | Not Active | Not Active | Not Active | Not Active | Not Active | Not Active | Not Active | Not Active | Not Active | Not Active |  | 
COc1ccc(Cc2nccc3cc(OC)c(OC)cc23)cc1OC [PAPAVERINE] | Not Active | Not Active | Not Active | Not Active | Not Active | Not Active | Not Active | Not Active | Not Active | Not Active | Not Active |  | 
C#C[C@]1(O)CC[C@H]2[C@@H]3CCc4cc(O)ccc4[C@H]3CC[C@@]21C [ETHINYL ESTRADIOL] | Not Active | Not Active | Not Active | Not Active | Not Active | Not Active | Not Active | Not Active | Not Active | Not Active | Not Active |  | 
C[C@H]([C@](O)(Cn1cncn1)c1ccc(F)cc1F)S(C)(=O)=O [GENACONAZOLE] | Not Active | Not Active | Not Active | Not Active | Not Active | Not Active | Not Active | Not Active | Not Active | Not Active | Not Active |  | 
CC(C)C[C@H]1C(=O)N2CCC[C@H]2[C@]2(O)O[C@](NC(=O)[C@@H]3C=C4c5cccc6[nH]c(Br)c(c56)C[C@H]4N(C)C3)(C(C)C)C(=O)N12 [BROMOCRIPTINE] | Not Active | Not Active | Not Active | Not Active |  | Not Active | Not Active | Not Active | Not Active | Not Active | Not Active | 22 nM | 10 nM
CCOC(=O)[C@H](CCc1ccccc1)N[C@@H](C)C(=O)N1CCC[C@H]1C(=O)O | Not Active | Not Active | Not Active | Not Active | Not Active | Not Active | Not Active | Not Active | Not Active | Not Active | Not Active |  | 
Nn1nnc2ccccc21 | Not Active | Not Active | Not Active | Not Active | Not Active | Not Active | Not Active | Not Active | Not Active | Not Active | Not Active |  | 
CC(C)(CO)C(O)C(=O)NCCCO (stereo not drawn) [PANTHENOL] | Not Active | Not Active | Not Active | Not Active | Not Active | Not Active | Not Active | Not Active | Not Active | Not Active | Not Active |  | 
O=C(O)Cc1ccc(-c2ccccc2)cc1 [FELBINAC] | Not Active | Not Active | Not Active | Not Active | Not Active | Not Active | Not Active | Not Active | Not Active | Not Active | Not Active |  | 
O=C(O)c1cccnc1 [NIACIN] | Not Active | Not Active | Not Active | Not Active | Not Active | Not Active | Not Active | Not Active | Not Active | Not Active | Not Active |  | 
C[C@H](C(=O)O)c1cccc(C(=O)c2ccccc2)c1 [DEXKETOPROFEN] | Not Active | Not Active | Not Active | Not Active | Not Active | Not Active | Not Active | Not Active | Not Active | Not Active | Not Active |  | 
CC[C@H]1OC(=O)[C@H](C)[C@@H](O[C@H]2C[C@@](C)(OC)[C@@H](O)[C@H](C)O2)[C@H](C)[C@@H](O[C@@H]2O[C@H](C)C[C@H](N(C)C)[C@H]2O)[C@](C)(OC)C[C@@H](C)C(=O)[C@H](C)[C@@H](O)[C@]1(C)O [CLARITHROMYCIN] | Not Active | Not Active | Not Active | Not Active | Not Active | Not Active | Not Active | Not Active | Not Active | Not Active | Not Active |  | 
